Experimental data published in patent publication US20200188361A1, “USE OF MITOCHONDRIAL ACTIVITY INHIBITORS FOR THE TREATMENT OF POOR PROGNOSIS ACUTE MYELOID LEUKEMIA” (UNIVERSITE DE MONTREAL, priority 2016, published 2020).

Tests used:
[1] = system: Complex I enzyme activity in OCI-AML3 cells; details: FIG. 8
Protocol: Complex I activity is determined by following the oxidation of NADH to NAD+ and the simultaneous reduction of a dye which leads to increased absorbance at OD=450 nm.

[2] = system: OCI-AML3 cells; assay: Dose-response curves in AML cell line (6-day culture assay in 384-well plates); assay type: cell-based; details: FIG. 4E
Protocol: (§1) FIGS. 5A-5J show the results on experiments assessing the mode of action of Mubritinib for mediating tumor cell death. FIG. 5A: OCI-AML3 leukemic cells were either pre-incubated for 4 hours with 6 mM N-acetyl-cysteine (NAC), a reactive oxygen species (ROS) scavenger, or with vehicle (water) before being treated with 100 nM Mubritinib for 24 h or vehicle (DMSO). […] FIGS. 5C and 5D show the levels of reduced and oxidized levels of glutathione, respectively, in OCI-AML3 treated or not with Mubritinib, as detected by liquid chromatography-mass spectrometry (LC/MS). […] FIG. 5G is a graph depicting dose-response curves upon Mubritinib treatment (6-day culture assay in 384-well plates) of OCI-AML3 and OCI-AML5 cell lines. FIGS. 5H-J are graphs depicting dose-response curves following treatment of OCI-AML3 and OCI-AML5 cell lines with other ETC inhibitors, namely Oligomycin (inhibitor of complex V, FIG. 5H), Rotenone (inhibitor of complex I, FIG. 5I) and Deguelin (inhibitor of complex I, FIG. 5J).
OCI-AML3 cells were maintained in alpha-MEM, 20% FBS whereas breat tumor BT474 cells were maintained in DMEM 10% FBS.
(§2) Patient cells were seeded in 384-well plates at a density of 5,000 cells in 50 μL per well. In the initial screen, compounds were added to seeded cells in serial dilutions (10 dilutions, 1:3, starting from 10 μM or 20 μM), in duplicates. Cells treated with 0.1% DMSO without additional compound were used as negative controls. Viable cell counts per well were evaluated after 6 days of culture using the CellTiterGlo® assay (Promega®) according to the manufacturer's instruction. The percent of inhibition was calculated as follows: 100−(100×(mean luminescence(compound)/mean luminescence(DMSO)); where mean-luminescence(compound) corresponds to the average of luminescent signals obtained for the compound-treated cells, and mean-luminescence(DMSO) corresponds to the average of luminescent signals obtained for the control DMSO-treated cells.

[3] = system: Normal primitive CD34-positive cord blood cells; assay: cells; details: Homo sapiens, read-out: EC50 in normal primitive CD34-positive cord blood cells
Protocol: as §2

[4] = system: HOX-high AML patient cells; assay: Primary chemical screen of 60 compounds, cell dose-response viability assay (CellTiterGlo, 6 days); assay type: cell-based, human
Protocol: (§3) frozen AML mono-nucleated cells were thawed at 37° C. in Iscove's modified Dulbecco's medium (IMDM) containing 20% FBS and DNase I (100 μg/mL).
(§4) All powders were dissolved in DMSO and diluted in culture medium immediately before use. Final DMSO concentration in all conditions was 0.1%. The 60 compounds were purchased from various suppliers including Santa Cruz, Selleckchem, Calbiochem, AdooQ Bioscience, Cayman chemical and Synkinase.
(§5) Patient cells were seeded in 384-well plates at a density of 5,000 cells in 50 μL per well. In the initial screen, compounds were added to seeded cells in serial dilutions (10 dilutions, 1:3, starting from 10 μM or 20 μM), in duplicates. Cells treated with 0.1% DMSO without additional compound were used as negative controls. Viable cell counts per well were evaluated after 6 days of culture using the CellTiterGlo® assay (Promega®) according to the manufacturer's instruction.
(§6) Using high expression of HOXA9 and HOXA10 as a surrogate for the detection of HOX-network-high patient samples, the survival of HOX-high versus HOX-med/low specimens contacted with 60 inhibitors targeting receptor tyrosine kinases (RTK), members of the RAS and PI3K pathways, was assessed (FIG. 2A, Table 4).

[5] = system: HOX-med/low AML patient cells; assay: as above; assay type: cell-based, human; details: Homo sapiens, 144 h; primary screen; mean over HOX-med/low patient specimens; 6 days culture; top concentration 10 μM or 20 μM; read-out: MEAN EC50 HOX-med/low
Protocol: as §3, §4, §5, §6

[6] = system: OCI-AML3 cells
Protocol: LC/MS Metabolite Measurements (Citric Acid Cycle Intermediates and Glutathione) LC/MS metabolite measurements were carried out at the McGill Metabolomics platform. Authentic metabolite standards were purchased from Sigma-Aldrich Co., while the following LC/MS grade solvents and additives were purchased from Fisher: ammonium acetate, formic acid, water, methanol, and acetonitrile. OCI-AML3 cells (5 million cells, quadruplicates, treated with either DMSO or Mubritinib 500 nM for 20 h) were washed twice with ice-cold 150 mM ammonium formate pH 7.2. Metabolites were then extracted using 380 μl of LC/MS grade 50% methanol/50% water mixture and 220 μl of cold acetonitrile. Samples were then homogenized by 1.4 mm ceramic bead beating 2 min at 30 Hz (TissueLyser, Qiagen). A volume of 300 μl of ice-cold water and 600 μl of ice-cold methylene chloride were added to the lysates. Samples were vortexed and allowed to rest on ice for 10 min for phase separation followed by centrifugation at 4,000 rpm for 5 min. The upper aqueous layer was transferred to a fresh pre-chilled tube. Samples were eventually dried by vacuum centrifugation operating at −4° C. (Labconco) and stored at −80° C. until ready for LC-MS/MS data collection. For LC-MS/MS analysis, specimens were first re-suspended in 50 μl of water and clarified by centrifugation for 15 min at 15,000 rpm at 1° C. Samples were maintained at 4° C. for the duration of the LC-MS/MS analysis in the autosampler.

[7] = system: mitochondrial electron transfer chain (ETC) complex I; details: cell free assay (FIG. 5F)
Protocol: as §1

[8] = system: OCI-AML3 leukemic cells; details: 500 nM, 24 h (FIG. 5B)
Protocol: as §1
(§7) Dead cells were stained using Propidium iodide at a final concentration of 1 μg/mL.

[9] = system: OCI-AML3 cells; remark: listed apart in the source
Protocol: as §1, §7

[10] = system: AML patient specimens; assay: Cell dose-response viability assay on AML patient specimens (primary and validation screen); assay type: cell-based, human; details: Homo sapiens; poor prognostic triple-mutated specimens (FIG. 3G); read-out: median EC50 in AML specimens with simultaneous mutations in NPM1, DNMT3A and FLT3-ITD
Protocol: as §3, §2

[11] = 500 nM, 24 h, relative to DMSO control

FC(F)(F)c1ccc(/C=C/c2nc(COc3ccc(CCCCn4ccnn4)cc3)co2)cc1 [Mubritinib, 1-(4-{4-[(2-{(E)-2-[4-(trifluoromethyl)phenyl]ethenyl}-1,3-oxazol-4-yl)methoxy]phenyl}butyl)-1H-1,2,3-triazole]
inhibitory effect on complex I in diaphorase-type (NADH oxidation) assay [1]: NADH-independent
sensitivity of OCI-AML3 cells (dose response curves) [2]: sensitive
EC50 [3]: > 375 nM
EC50 ([4]; Homo sapiens, 144 h, primary screen, mean over HOX-high patient specimens, 6 days culture, top concentration 10 μM or 20 μM, read-out: MEAN EC50 HOX-high): 315 nM
difference in sensitivity of HOX-high versus HOX-med/low patient cells ([4]; primary screen (FIG. 2B)): significantly more sensitive
FOLD CHANGE High/Med-low ([4]; ratio of mean EC50 HOX-high to mean EC50 HOX-med/low): 0.2
EC50 [5]: 1380 nM
levels of oxidized glutathione [6, 11]: increased
levels of reduced glutathione [6, 11]: decreased
level of citrate ([6]; OCI-AML3, Mubritinib 500 nM for 20 h vs DMSO (FIG. 6A)): reduces the levels
level of alpha-ketoglutarate ([6]; OCI-AML3, Mubritinib 500 nM for 20 h vs DMSO (FIG. 6B)): reduces the levels
level of succinate ([6]; OCI-AML3, Mubritinib 500 nM for 20 h vs DMSO (FIG. 6C)): reduces the levels
level of fumarate ([6]; OCI-AML3, Mubritinib 500 nM for 20 h vs DMSO (FIG. 6D)): reduces the levels
level of malate ([6]; OCI-AML3, Mubritinib 500 nM for 20 h vs DMSO (FIG. 6E)): reduces the levels
ETC Complex I activity [7]: inhibitory effect on ETC Complex I activity
level of ROS activity (hydroxyl, peroxyl) by DCFDA [8]: increased
Mubritinib-induced apoptosis in the presence of the ROS scavenger N-acetyl-cysteine (NAC) ([9]; 4 hours pre-incubation with 6 mM NAC, then 100 nM Mubritinib for 24 h (FIG. 5A)): significantly decreased
Annexin V staining (marker of apoptosis) ([9]; 24 hours, 100 nM or 10 μM (FIG. 4C)): increase in Annexin V staining
number of dead (PI-positive) cells ([9]; 27 hours of treatment, compared to DMSO (FIG. 4B)): increase in the number of dead (PI-positive) cells
live cell counts (Propidium Iodide-negative cells) ([9]; four days of treatment, different concentrations, dose-dependent (FIG. 4A)): reduction of live cell counts
EC50 [10]: 96 nM
